Experimental findings from ChEMBL document CHEMBL5726907, “FXR (NR1H4) modulating compounds” (2018) are described below.

Structures are written as SMILES.

For this test, the target named is T1, Bile acid receptor (Homo sapiens, UniProt Q96RI1).
T1 sequence (Q96RI1 whole entry): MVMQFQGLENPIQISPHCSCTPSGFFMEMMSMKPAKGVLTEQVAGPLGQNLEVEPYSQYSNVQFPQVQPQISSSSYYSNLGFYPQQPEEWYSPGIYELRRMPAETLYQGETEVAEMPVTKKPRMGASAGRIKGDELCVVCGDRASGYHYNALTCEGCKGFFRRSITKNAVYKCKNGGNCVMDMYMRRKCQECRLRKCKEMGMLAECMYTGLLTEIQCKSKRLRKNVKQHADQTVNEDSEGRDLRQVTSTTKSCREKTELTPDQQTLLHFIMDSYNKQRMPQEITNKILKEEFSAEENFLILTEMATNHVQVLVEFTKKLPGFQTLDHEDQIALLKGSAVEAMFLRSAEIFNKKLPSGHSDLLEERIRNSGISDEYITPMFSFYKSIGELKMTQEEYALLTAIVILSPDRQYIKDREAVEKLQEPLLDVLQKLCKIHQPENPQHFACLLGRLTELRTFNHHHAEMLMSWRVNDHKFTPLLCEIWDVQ
The test can be described thus: FRET Activity Assay: The human FXRalpha LBD was expressed in E. coli strain BL21(DE3) as an N-terminally GST tagged fusion protein. The DNA encoding the FXR ligand binding domain was cloned into vector pDEST15 (Invitrogen). Expression was under control of an IPTG inducible T7 promoter. The amino acid boundaries of the ligand binding domain were amino acids 187-472 of Database entry NM_005123 (RefSeq). Expression and purification of the FXR-LBD: An overnight preculture of a transformed E. coli strain was diluted 1:20 in LB-Ampicillin medium and grown at 30° C. to an optical density of =0.4-0.6. Gene expression was then induced by addition of 0.5 mM IPTG. Cells were incubated an additional 6 h at 30° C., 180 rpm. Cells were collected by centrifugation (7000×g, 7 min, rt). Per liter of original cell culture, cells were resuspended in 10 mL lysis buffer (50 mM Glucose, 50 mM Tris pH 7.9, 1 mM EDTA and 4 mg/mL lysozyme) and left on ice for 30 min. Cells were then subjected to sonication and cell debris removed via centrifugation (22000×g, 30 min, 4° C.). Per 10 mL of supernatant 0.5 mL prewashed Glutathione 4B sepharose slurry (Qiagen) was added and the suspension kept slowly rotating for 1 h at 4° C. Glutathione 4B sepharose beads were pelleted by centrifugation (2000× g, 15 sec, 4° C.) and washed twice in wash buffer (25 mM Tris, 50 mM KCl, 4 mM MgCl2 and IM NaCl). […].

As a reminder, the IC50 is the concentration that inhibits the measured activity by half. Lower therefore signals greater potency. Compound `O=C(O)c1cc(F)c2nc(C3(O)C4COCC3CC(OCc3c(-c5c(Cl)cccc5Cl)noc3C3CC3)C4)sc2c1` (configuration not stated) returned an IC50 of 19 nM. In turn, `O=C(O)c1ccc2nc(C3(O)C4COCC3CC(OCc3c(-c5c(Cl)cccc5Cl)noc3C3CC3)C4)sc2c1` (configuration not stated) returned an IC50 of 30 nM. Against the preceding compound, the IC50 is about 1.6-fold higher.
